Measured values: US11945806B2, “Stabilization of amyloidogenic immunoglobulin light chains” (The Scripps Research Institute, priority 2019, dated 2024)

target: WIL-FL (Homo sapiens, UniProt P01721); assay: Unlabeled LC Protease Sensitivity Assay (proteinase K); type: biochemical; settings: small molecule 10 μM, WIL-FL 5 μM, proteinase K 50 nM, 2 hours at 37° C.
In short: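 Compound at 10 μM (1% DMSO) is mixed with 5 μM WIL-FL and 50 nM proteinase K in PBS pH 7.4/0.02% Pluronic F-127, 37 °C, 2 h, then quenched with PMSF. Remaining protein measured by SEC-UPLC peak area at 280 nm and expressed as fold protection relative to vehicle and no-protease controls.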

SMILES	Protection (fold protection of LC from protease)
CCN(CC)c1ccc2c(C)c(CC(=O)N(C)C)c(=O)oc2c1 [Compound 61, 2-(7-(diethylamino)-4-methyl-2-oxo-2H-chromen-3-yl)-N,N-dimethylacetamide]	A (A < 0.3))
CCN(CC)c1ccc2c(C)c(CCN3C(=O)NC4(CCN(c5nccn6cnnc56)CC4)C3=O)c(=O)oc2c1 [Compound 217, 8-([1,2,4]triazolo[4,3-a]pyrazin-8-yl)-3-(2-(7-(diethylamino)-4-methyl-2-oxo-2H-chromen-3-yl)ethyl)-1,3,8-triazaspiro[4.5]decane-2,4-dione]	C (C ≥ 0.6)
Cc1cc(=O)oc2cc(C(F)(F)F)ccc12 [Compound 169, 4-methyl-7-(trifluoromethyl)-2H-chromen-2-one]	A (A < 0.3))
CCN(CC)c1ccc2c(C)c(CC(=O)NCCN(C)C)c(=O)oc2c1 [Compound 58, 2-(7-(diethylamino)-4-methyl-2-oxo-2H-chromen-3-yl)-N-(2-(dimethylamino)ethyl)acetamide]	A (A < 0.3))
CCN(CC)c1ccc2c(C)c(CCN3CC4(CCN(c5ccccc5)CC4)NC3=O)c(=O)oc2c1 [Compound 158, 3-(2-(7-(diethylamino)-4-methyl-2-oxo-2H-chromen-3-yl)ethyl)-8-phenyl-1,3,8-triazaspiro[4.5]decan-2-one]	B (3 ≤ B < 0.6)
CCCOc1ccc2c(C)cc(=O)oc2c1 [Compound 33, 4-methyl-7-propoxy-2H-chromen-2-one]	A (A < 0.3))
CCN(CC)c1ccc2c(C)c(CCN3C(=O)NC4(CCN(c5ncnc6c5cnn6C)CC4)C3=O)c(=O)oc2c1 [Compound 216, 3-(2-(7-(diethylamino)-4-methyl-2-oxo-2H-chromen-3-yl)ethyl)-8-(1-methyl-1H-pyrazolo[3,4-d]pyrimidin-4-yl)-1,3,8-triazaspiro[4.5]decane-2,4-dione]	C (C ≥ 0.6)
Cc1c(CN2CCOCC2)c(=O)oc2cc(OC(C)c3ccccc3)ccc12 (centres unmarked) [Compound 152, 4-methyl-3-(morpholinomethyl)-7-(1-phenylethoxy)-2H-chromen-2-one]	B (3 ≤ B < 0.6)
Cc1cc(=O)oc2cc(C#N)ccc12 [Compound 224, 4-methyl-2-oxo-2H-chromene-7-carbonitrile]	A (A < 0.3))
Cc1cc(=O)oc2cc(NC(C)c3ccccc3)ccc12 (centres unmarked) [Compound 39, 4-methyl-7-((1-phenylethyl)amino)-2H-chromen-2-one]	A (A < 0.3))
C=C(C)CN(CC(=C)C)c1ccc2c(C)cc(=O)oc2c1 [Compound 243, 7-(bis(2-methylallyl)amino)-4-methyl-2H-chromen-2-one]	A (A < 0.3))
CCN(CC)c1ccc2c(C)c(CCNC(=O)NCc3ccc4ccccc4n3)c(=O)oc2c1 [Compound 293, 1-(2-(7-(diethylamino)-4-methyl-2-oxo-2H-chromen-3-yl)ethyl)-3-(quinolin-2-ylmethyl)urea]	B (3 ≤ B < 0.6)
CCN(CC)c1ccc2c(C)c(CCNC(=O)CCc3ccccc3)c(=O)oc2c1 [Compound 70, N-(2-(7-(diethylamino)-4-methyl-2-oxo-2H-chromen-3-yl)ethyl)-3-phenylpropanamide]	A (A < 0.3))
CCN(CC)c1ccc2c(C)c(CCNC(=O)CCc3ccncc3)c(=O)oc2c1 [Compound 96, N-(2-(7-(diethylamino)-4-methyl-2-oxo-2H-chromen-3-yl)ethyl)-3-(pyridin-4-yl)propanamide]	A (A < 0.3))
C#CCN(CC1CC1)c1ccc2c(C)cc(=O)oc2c1 [Compound 262, 7-((cyclopropylmethyl)(prop-2-yn-1-yl)amino)-4-methyl-2H-chromen-2-one]	A (A < 0.3))
CCCN(CCC)c1ccc2c(C)cc(=O)oc2c1 [Compound 241, 7-(dipropylamino)-4-methyl-2H-chromen-2-one]	A (A < 0.3))
Cc1cc(=O)oc2cc(C(=O)Nc3ccc4[nH]cnc4c3)ccc12 [Compound 238, N-(1H-benzo[d]imidazol-6-yl)-4-methyl-2-oxo-2H-chromene-7-carboxamide]	A (A < 0.3))
CCN(CC)c1ccc2c(C)c(CCN3C(=O)NC4(CCN(c5nccn6ccnc56)CC4)C3=O)c(=O)oc2c1 [Compound 215, 3-(2-(7-(diethylamino)-4-methyl-2-oxo-2H-chromen-3-yl)ethyl)-8-(imidazo[1,2-a]pyrazin-8-yl)-1,3,8-triazaspiro[4.5]decane-2,4-dione]	C (C ≥ 0.6)
CCN(CC)c1ccc2c(C)c(CC(=O)NC)c(=O)oc2c1 [Compound 60, 2-(7-(diethylamino)-4-methyl-2-oxo-2H-chromen-3-yl)-N-methylacetamide]	A (A < 0.3))
C#CCN(CC=C)c1ccc2c(C)cc(=O)oc2c1 [Compound 259, 7-(allyl(prop-2-yn-1-yl)amino)-4-methyl-2H-chromen-2-one]	A (A < 0.3))
Cc1cc(=O)oc2cc(OC(C)c3cccnc3)ccc12 (centres unmarked) [Compound 171, 4-methyl-7-(1-(pyridin-3-yl)ethoxy)-2H-chromen-2-one]	A (A < 0.3))
Cc1cc(=O)oc2cc(C(=O)NCc3ccccn3)ccc12 [Compound 226, 4-methyl-2-oxo-N-(pyridin-2-ylmethyl)-2H-chromene-7-carboxamide]	A (A < 0.3))

Next, values leading:

Protection (fold protection of LC from protease)	SMILES
B (3 ≤ B < 0.6)	CCN(CC)c1ccc2c(C)c(CCNC(=O)NCc3cccc(OCC(=O)O)c3)c(=O)oc2c1 [Compound 311, 2-(3-((3-(2-(7-(diethylamino)-4-methyl-2-oxo-2H-chromen-3-yl)ethyl)ureido)methyl)phenoxy)acetic acid]
C (C ≥ 0.6)	CCN(CC)c1ccc2c(C)c(CCOC(=O)NCc3cccc(S(N)(=O)=O)c3)c(=O)oc2c1 [Compound 149, 2-(7-(diethylamino)-4-methyl-2-oxo-2H-chromen-3-yl)ethyl (3-sulfamoylbenzyl)carbamate]
B (3 ≤ B < 0.6)	CCN(CC)c1ccc2c(C)c(CCOC(=O)Nc3ccc(NC(C)=O)cn3)c(=O)oc2c1 [Compound 103, 2-(7-(diethylamino)-4-methyl-2-oxo-2H-chromen-3-yl)ethyl (5-acetamidopyridin-2-yl)carbamate]
C (C ≥ 0.6)	CCN(CC)c1ccc2c(C)c(CCOC(=O)NCc3cccc(-c4cc[nH]n4)c3)c(=O)oc2c1 [Compound 159, 2-(7-(diethylamino)-4-methyl-2-oxo-2H-chromen-3-yl)ethyl (3-(1H-pyrazol-5-yl)benzyl)carbamate]
A (A < 0.3))	CCN(CC)c1ccc2c(C)c(CCOC(=O)NCc3ccc(C(F)(F)F)nc3)c(=O)oc2c1 [Compound 101, 2-(7-(diethylamino)-4-methyl-2-oxo-2H-chromen-3-yl)ethyl ((6-(trifluoromethyl)pyridin-3-yl)methyl)carbamate]
C (C ≥ 0.6)	CCN(CC)c1ccc2c(C)c(CCNC(=O)NCc3ccc4ccccc4c3)c(=O)oc2c1 [Compound 292, 1-(2-(7-(diethylamino)-4-methyl-2-oxo-2H-chromen-3-yl)ethyl)-3-(naphthalen-2-ylmethyl)urea]
A (A < 0.3))	CCN(CC)c1ccc2c(C)c(CCOC(=O)NCc3cncc(-c4ccc[nH]c4=O)c3)c(=O)oc2c1 [Compound 220, 2-(7-(diethylamino)-4-methyl-2-oxo-2H-chromen-3-yl)ethyl ((2′-oxo-1′,2′-dihydro-[3,3′-bipyridin]-5-yl)methyl)carbamate]
C (C ≥ 0.6)	CCN(CC)c1ccc2c(C)c(CCOC(=O)NCc3ccc4nc[nH]c4c3)c(=O)oc2c1 [Compound 142, 2-(7-(diethylamino)-4-methyl-2-oxo-2H-chromen-3-yl)ethyl ((1H-benzo[d]imidazol-6-yl)methyl)carbamate]
C (C ≥ 0.6)	CCN(CC)c1ccc2c(C)c(CCOC(=O)NCc3cccc(-c4ncccn4)c3)c(=O)oc2c1 [Compound 155, 2-(7-(diethylamino)-4-methyl-2-oxo-2H-chromen-3-yl)ethyl (3-(pyrimidin-2-yl)benzyl)carbamate]
A (A < 0.3))	CCN(CC)c1ccc2c(C)c(CCOC(=O)NCc3ccc(=O)[nH]c3)c(=O)oc2c1 [Compound 138, 2-(7-(diethylamino)-4-methyl-2-oxo-2H-chromen-3-yl)ethyl ((6-oxo-1,6-dihydropyridin-3-yl)methyl)carbamate]
A (A < 0.3))	CCN(CC)c1ccc2c(C)c(CCOC(=O)NCc3ccncn3)c(=O)oc2c1 [Compound 90, 2-(7-(diethylamino)-4-methyl-2-oxo-2H-chromen-3-yl)ethyl (pyrimidin-4-ylmethyl)carbamate]
B (3 ≤ B < 0.6)	CCN(CC)c1ccc2c(C)c(CCOC(=O)NCc3ccc4cc[nH]c(=O)c4c3)c(=O)oc2c1 [Compound 143, 2-(7-(diethylamino)-4-methyl-2-oxo-2H-chromen-3-yl)ethyl ((1-oxo-1,2-dihydroisoquinolin-7-yl)methyl)carbamate]
B (3 ≤ B < 0.6)	CCN(CC)c1ccc2c(C)c(CCOC(=O)NCCc3cnc[nH]3)c(=O)oc2c1 [Compound 88, 2-(7-(diethylamino)-4-methyl-2-oxo-2H-chromen-3-yl)ethyl (2-(1H-imidazol-4-yl)ethyl)carbamate]
